Test results: paper PMC7732531 (Frontiers in Pharmacology, 2020)

How the values were obtained:
[1] = Transcellular transport experiment with Caco-2 cells; conditions: human, Caco-2
Experimental: (§1) Caco-2 cell lines were cultured (ATCC, Manassas, VA, United States) as described previously ([Liu et al., 2014]). Briefly, the cells were cultured at 37°C in 5% CO2 at 90% humidity in DMEM high glucose medium containing 20% fetal bovine serum, 1% nonessential amino acids, 100 U/ml penicillin and 1% streptomycin. For the efflux studies, the cells were seeded onto polyethylene terephthalate Millicell® cell culture inserts (0.4 μm pore size, 6.5 mm diameter, Millipore Corporation, Billerica, MA, United States) at a density of 1.7 × 10^5 cells/ml. The culture medium was refreshed on the day after seeding, after which it was refreshed every other day and on the day before the transport experiment. The cells were cultured for 20–22 days after seeding and then evaluated by measuring the transepithelial electrical resistance (TEER) (Millicell ERS®, Millipore Corporation) before experiments. […] Transepithelial permeability studies for YL-IPA08 (10 μM) were conducted from apical to basolateral side (A-B) and basolateral to apical side (B-A) for 120 min 0.2% BSA was included in the receiver solution to avoid nonspecific binding. At 60, 90, and 120 min, half volume of solution from receiver side was withdrawn, and same volume of HBSS was immediately added. Obtained samples were precipitated by adding 4× volumes of acetonitrile containing IS and centrifuged. The supernatants were stored in −20°C until further analysis by LC-MS/MS.
(§2) The in vitro t1/2 in liver microsomal incubation was calculated from the semi-log plot of percentage remaining vs. incubation time and intrinsic clearance (Clint, ml/min/mg protein) was calculated as Eq. 1: CLint=0.693/in vitro t1/2×volume of incubation (μl)/amount of microsomal protein in incubation (mg) (1) ([Suzuki et al., 2003]).Apparent permeability was obtained according to the equation Papp = (dQ/dt)/(A × C0), where dQ/dt is the mass transport rate (determined from the slope of the amount transported vs. time plot), A is the surface area of the monolayer, and C0 is the initial concentration of YL-IPA08 in the donor chamber ([Suzuki et al., 2003]). The efflux ratio was calculated for each study using the following equation: […] = Papp(B–A)/Papp(A–B), where Papp(B–A) and Papp(A–B) represent apparent drug permeability in the B to A and A to B direction, respectively. An efflux ratio greater than 2 indicates net efflux.

Caco-2 cells = assay: as above; conditions: for Concentration, A-B-A-90min / Concentration, A-B-B-90min: Caco-2, A→B; for Concentration, A-B-A-90min: apical (donor) side; for Concentration, A-B-B-90min: basolateral (receiver) side; for Concentration, B-A-A-90min / Concentration, B-A-B-90min: Caco-2, B→A; for Concentration, B-A-A-90min: apical (receiver) side; for Concentration, B-A-B-90min: basolateral (donor) side; for Concentration, DOA: Caco-2, apical donor at time 0; for Concentration, DOB: Caco-2, basolateral donor at time 0
Experimental: as §1, §2

[2] = Protein binding by rapid equilibrium dialysis, rat plasma; conditions: 1 µM
Experimental: The fraction of unbound YL-IPA08 in plasma and liver microsomes of rat and human, and brain homogenates of rat were determined utilizing Rapid Equilibrium Dialysis method ([Waters et al., 2008]). Rat brain homogenate was harvested in 4-fold volume (w/v) of PBS (pH 7.4). YL-IPA08 were spiked into fresh plasma, rat brain homogenate, liver microsomes (0.2 mg/ml protein) at concentration of 1 µM, and then dialyzed against […] on a shaker at 37°C for 4 h. To avoid the high non-specific binding of YL-IPA08, 0.01% Tween 80 was added in the incubation mixture. At the end of the incubation, protein was precipitated with acetonitrile (containing IS) and analyzed by LC-MS/MS. Phenacetin, quinidine, and warfarin were selected as positive control for the protein binding test.
The unbound fraction of YL-IPA08 in plasma or liver microsomes (ƒu,x) was calculated as shown in Eq. 2, and unbound fraction in the tissue homogenate (ƒu,b) was calculated according to Eq. 3. fu,x = Concbuffer chamber/Concplasma/liver microsomes chamber (2) fu,b = Concbuffer chamber/Concbrain homogenate chamber (3) The measured unbound fractions would be higher when a tissue is homogenized and diluted in buffer, the unbound fractions in an undiluted tissues (ƒu,brain) were calculated using Eq. 4 ([Kalvass and Maurer, 2002]). Undiluted fu,brain=1/D/((1/fu,brain homogenate)−1)+1/D (4) Where D represents the fold of dilution factor in brain homogenates. The free fraction of plasma and undiluted tissue is used in tissue-to-plasma exposure ratio calculation.

Row | Papp A→B at 120 min, 10 μM [1] [×10⁻⁶ cm/s] | Papp B→A at 120 min, 10 μM [1] [×10⁻⁶ cm/s] | efflux ratio at 120 min, 10 μM [1] | Concentration, A-B-A-90min (Caco-2 cells) [µM] | Concentration, A-B-B-90min (Caco-2 cells) [µM] | Concentration, B-A-A-90min (Caco-2 cells) [µM] | Concentration, B-A-B-90min (Caco-2 cells) [µM] | Concentration, DOA (Caco-2 cells) [µM] | Concentration, DOB (Caco-2 cells) [µM] | Protein biding (%) ([2]; Rat plasma, dialysis 4 h) | Protein biding (%) ([2]; rat, 4 h) | SMILES
1 | 4.35 ± 2.06 | 2.78 ± 0.09 | 0.63 | 4.608 ± 0.43 | 0.079 ± 0.026 | 0.172 ± 0.019 | 7.267 ± 0.597 | 10.633 ± 2.369 | 10.367 ± 1.118 | – | – | CC(C)NCC(O)COc1cccc2ccccc12 (stereo not drawn) [Propranolol]
2 | – | – | – | – | – | – | – | – | – | – | 99.67 ± 0.08 | CC(=O)CC(c1ccccc1)c1c(O)c2ccccc2oc1=O (stereo not drawn) [warfarin, reference compound]

Continued, molecule first:

Row | SMILES | Papp A→B at 120 min, 10 μM [1] [×10⁻⁶ cm/s] | Papp B→A at 120 min, 10 μM [1] [×10⁻⁶ cm/s] | efflux ratio at 120 min, 10 μM [1] | Concentration, A-B-A-90min (Caco-2 cells) [µM] | Concentration, A-B-B-90min (Caco-2 cells) [µM] | Concentration, B-A-A-90min (Caco-2 cells) [µM] | Concentration, B-A-B-90min (Caco-2 cells) [µM] | Concentration, DOA (Caco-2 cells) [µM] | Concentration, DOB (Caco-2 cells) [µM] | Protein biding (%) ([2]; Rat plasma, dialysis 4 h) | Protein biding (%) ([2]; rat, 4 h)
3 | C[C@H]1O[C@@H](O[C@H]2[C@@H](O)C[C@H](O[C@H]3[C@@H](O)C[C@H](O[C@H]4CC[C@@]5(C)[C@H](CC[C@@H]6[C@@H]5C[C@@H](O)[C@]5(C)[C@@H](C7=CC(=O)OC7)CC[C@]65O)C4)O[C@@H]3C)O[C@@H]2C)C[C@H](O)[C@@H]1O [Digoxin] | 0.45 ± 0.17 | 2.63 ± 0.7 | 6.25 | 8.117 ± 0.473 | 0.009 ± 0.002 | 0.203 ± 0.027 | 8.867 ± 0.388 | 11.683 ± 3.499 | 12.667 ± 2.619 | – | –
4 | CCOc1ccc(NC(C)=O)cc1 [phenacetin, reference compound] | – | – | – | – | – | – | – | – | – | 58.48 ± 2.26 | –
5 | C=C[C@H]1C[N@@]2CC[C@H]1C[C@@H]2[C@@H](O)c1ccnc2ccc(OC)cc12 [quinidine, reference compound] | – | – | – | – | – | – | – | – | – | 78.08 ± 4.49 | –
